# Data reported in patent publication US10053463B2 (Janssen Pharmaceutica NV, priority 2013, dated 2018).
# Biological target: P2X7 (Homo sapiens (Human), UniProt Q99572)
# Assay: P2X7 antagonism in human peripheral blood mononuclear cells (PBMCs), IL-1β release
# Type: cell-based
# Settings: P2X7; Table 3 (additional runs); 10 μM compound; read-out: PBMC 10 μM (% control)
# Description: P2X7 Antagonism in Human Peripheral Blood Mononuclear Cells (PBMCs) and Human Whole Blood.
# Human blood was collected using a blood donor program. PBMCs were isolated from blood using a Ficoll density gradient technique. Briefly, blood was laid on Ficoll solution and centrifuged at RT for 20 minutes at 2000 rpm. The buffy layer (between red blood cells and plasma) was carefully collected by aspiration, washed with PBS and centrifuged again at 1500 rpm for 15 minutes. The resulting cell pellet was washed and plated on 96 well-plates for experiments. For the Human Whole Blood experiments, 150 μl of human blood was platted on 96 well-plates. Lipopolysaccharide (LPS) (30 ng/ml) was added to each well and incubated for 1 hour. Test compounds were then added and incubated for 30 minutes. The P2X7 agonist, 2′(3′)-O-(4-benzoylbenzoyl) adenosine 5′-triphosphate (Bz-ATP) was then added at a final concentration of 0.5 mM (PBMC) or 1 mM (blood). Cells were incubated for an additional 1.5 hours. At that point, supernatant was collected and stored for IL-1β assay using manufacturer's protocol for enzyme-linked immunosorbent assay (ELISA). Data was expressed as percent control, where control is defined as the difference in IL-1β release in LPS+Bz-ATP samples and LPS only samples. Data was plotted as response (% control) versus concentration to generate IC50 values. […] Data are analyzed and graphed on Graphpad Prism 5. For analysis, each concentration point is averaged from triplicate values and the averaged values are plotted on Graphpad Prism.
# Sequence of P2X7 (Q99572 whole entry): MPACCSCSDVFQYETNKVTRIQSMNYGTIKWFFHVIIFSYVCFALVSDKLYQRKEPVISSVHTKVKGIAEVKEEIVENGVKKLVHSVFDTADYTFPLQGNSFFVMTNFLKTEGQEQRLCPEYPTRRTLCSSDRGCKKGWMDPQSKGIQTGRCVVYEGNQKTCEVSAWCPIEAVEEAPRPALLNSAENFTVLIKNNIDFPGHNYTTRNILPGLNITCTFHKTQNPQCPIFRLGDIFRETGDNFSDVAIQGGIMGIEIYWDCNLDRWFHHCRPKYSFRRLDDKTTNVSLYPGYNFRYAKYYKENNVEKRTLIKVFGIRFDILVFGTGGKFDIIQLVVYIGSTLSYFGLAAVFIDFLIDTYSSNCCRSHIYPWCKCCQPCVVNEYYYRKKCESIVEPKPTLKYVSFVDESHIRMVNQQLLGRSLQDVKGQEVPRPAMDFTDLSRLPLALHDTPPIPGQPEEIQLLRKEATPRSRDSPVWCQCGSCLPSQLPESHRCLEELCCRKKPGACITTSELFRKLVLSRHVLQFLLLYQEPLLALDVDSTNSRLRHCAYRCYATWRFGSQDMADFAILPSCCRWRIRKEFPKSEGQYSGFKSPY
row,remaining activity at 10 µM [%],SMILES
1,33.2,"C[C@H]1Cn2c(nnc2C2CCOCC2)C(=O)N1Cc1cccc(C(F)(F)F)c1Cl [Example 53, (6S)-7-[2-Chloro-3-(trifluoromethyl)benzyl]-6-methyl-3-(tetrahydro-2H-pyran-4-yl)-6,7-dihydro[1,2,4]triazolo[4,3-a]pyrazin-8(5H)-one]"
2,4.2,"C[C@H]1Cn2c(nnc2-c2nccc(C(F)(F)F)n2)C(=O)N1Cc1cccc(C(F)(F)F)c1Cl [Example 54, (6S)-7-[2-chloro-3-(trifluoromethyl)benzyl]-6-methyl-3-[4-(trifluoromethyl)pyrimidin-2-yl]-6,7-dihydro[1,2,4]triazolo[4,3-a]pyrazin-8(5H)-one]"
3,8.5,"C[C@H]1Cn2c(nnc2-c2cccc(C(F)(F)F)n2)C(=O)N1Cc1cccc(C(F)(F)F)c1Cl [Example 55, (6S)-7-[2-Chloro-3-(trifluoromethyl)benzyl]-6-methyl-3-[6-(trifluoromethyl)pyridin-2-yl]-6,7-dihydro[1,2,4]triazolo[4,3-a]pyrazin-8(5H)-one]"
4,11.2,"C[C@H]1Cn2c(nnc2-c2ccc(Cl)cn2)C(=O)N1Cc1cccc(C(F)(F)F)c1Cl [Example 56, (6S)-3-(5-Chloropyridin-2-yl)-7-[2-chloro-3-(trifluoromethyl)benzyl]-6-methyl-6,7-dihydro[1,2,4]triazolo[4,3-a]pyrazin-8(5H)-one]"
5,0.1,"Cc1cncc(-c2nnc3n2C[C@H](C)N(Cc2cccc(C(F)(F)F)c2Cl)C3=O)c1 [Example 57, (6S)-7-[2-Chloro-3-(trifluoromethyl)benzyl]-6-methyl-3-(5-methylpyridin-3-yl)-6,7-dihydro[1,2,4]triazolo[4,3-a]pyrazin-8(5H)-one]"
6,24.6,"C[C@H]1Cn2c(nnc2C2CCN(C(=O)OC(C)(C)C)C2)C(=O)N1Cc1cccc(C(F)(F)F)c1Cl (stereo partly drawn) [Example 58, (6S)-tert-Butyl3-{7-[2-chloro-3-(trifluoromethyl)benzyl]-6-methyl-8-oxo-5,6,7,8-tetrahydro[1,2,4]triazolo[4,3-a]pyrazin-3-yl}pyrrolidine-1-carboxylate]"
7,17.1,"C[C@H]1Cn2c(nnc2C2CCCNC2)C(=O)N1Cc1cccc(C(F)(F)F)c1Cl (stereo partly drawn) [Example 60, (6S)-7-[2-Chloro-3-(trifluoromethyl)benzyl]-6-methyl-3-piperidin-3-yl-6,7-dihydro[1,2,4]triazolo[4,3-a]pyrazin-8(5H)-one]"
8,1.9,"CC[C@H]1Cn2c(nnc2-c2ncccn2)C(=O)N1Cc1cccc(C(F)(F)F)c1Cl [Example 72, (6S)-7-[2-Chloro-3-(trifluoromethyl)benzyl]-6-ethyl-3-pyrimidin-2-yl-6,7-dihydro[1,2,4]triazolo[4,3-a]pyrazin-8(5H)-one]"
9,6.2,"CC[C@H]1Cn2c(nnc2-c2cccnc2)C(=O)N1Cc1cccc(C(F)(F)F)c1Cl [Example 73, (6S)-7-[2-Chloro-3-(trifluoromethyl)benzyl]-6-ethyl-3-pyridin-3-yl-6,7-dihydro[1,2,4]triazolo[4,3-a]pyrazin-8(5H)-one]"
10,0.3,"CC[C@H]1Cn2c(nnc2-c2cc[nH]n2)C(=O)N1Cc1cccc(C(F)(F)F)c1Cl [Example 74, (6S)-7-[2-Chloro-3-(trifluoromethyl)benzyl]-6-ethyl-3-(1H-pyrazol-3-yl)-6,7-dihydro[1,2,4]triazolo[4,3-a]pyrazin-8(5H)-one]"
11,22.6,"CC[C@H]1Cn2c(nnc2-c2ncc(F)cn2)C(=O)N1Cc1cccc(C(F)(F)F)c1Cl [Example 75, (6S)-7-[2-Chloro-3-(trifluoromethyl)benzyl]-6-ethyl-3-(5-fluoropyrimidin-2-yl)-6,7-dihydro[1,2,4]triazolo[4,3-a]pyrazin-8(5H)-one]"
12,16.9,"CC[C@H]1Cn2c(nnc2-c2ccc(F)cn2)C(=O)N1Cc1cccc(C(F)(F)F)c1Cl [Example 76, (6S)-7-[2-Chloro-3-(trifluoromethyl)benzyl]-6-ethyl-3-(5-fluoropyridin-2-yl)-6,7-dihydro[1,2,4]triazolo[4,3-a]pyrazin-8(5H)-one]"
13,105,"C[C@H]1Cn2c(nnc2-c2cnccn2)C(=O)N1 [Example 77, (6S)-6-Methyl-3-pyrazin-2-yl-6,7-dihydro[1,2,4]triazolo[4,3-a]pyrazin-8(5H)-one]"
14,8.3,"C[C@H]1Cn2c(nnc2-c2cnccn2)C(=O)N1Cc1ccc(F)cc1Cl [Example 78, (6S)-7-(2-Chloro-4-fluorobenzyl)-6-methyl-3-pyrazin-2-yl-6,7-dihydro[1,2,4]triazolo[4,3-a]pyrazin-8(5H)-one]"
15,15.6,"C[C@H]1Cn2c(nnc2-c2cnccn2)C(=O)N1Cc1ccccc1 [Example 79, (6S)-7-Benzyl-6-methyl-3-pyrazin-2-yl-6,7-dihydro[1,2,4]triazolo[4,3-a]pyrazin-8(5H)-one]"
16,8.4,"C[C@H]1Cn2c(nnc2-c2cnccn2)C(=O)N1Cc1ccccc1Cl [Example 80, (6S)-7-(2-Chlorobenzyl)-6-methyl-3-pyrazin-2-yl-6,7-dihydro[1,2,4]triazolo[4,3-a]pyrazin-8(5H)-one]"
17,170,"C[C@H]1Cn2c(nnc2-c2cnccn2)C(=O)N1Cc1ccc(S(C)(=O)=O)cc1Cl [Example 81, (6S)-7-[2-Chloro-4-(methylsulfonyl)benzyl]-6-methyl-3-pyrazin-2-yl-6,7-dihydro[1,2,4]triazolo[4,3-a]pyrazin-8(5H)-one]"
18,22.2,"C[C@H]1Cn2c(nnc2-c2cnccn2)C(=O)N1Cc1ccc(Cl)cc1S(C)(=O)=O [Example 82, (6S)-7-[4-Chloro-2-(methylsulfonyl)benzyl]-6-methyl-3-pyrazin-2-yl-6,7-dihydro[1,2,4]triazolo[4,3-a]pyrazin-8(5H)-one]"
19,15.6,"C[C@H]1Cn2c(nnc2-c2cnccn2)C(=O)N1Cc1ccccc1OC(F)(F)F [Example 83, (6S)-6-Methyl-3-pyrazin-2-yl-7-[2-(trifluoromethoxy)benzyl]-6,7-dihydro[1,2,4]triazolo[4,3-a]pyrazin-8(5H)-one]"
20,25.9,"C[C@H]1Cn2c(nnc2-c2cnccn2)C(=O)N1Cc1cc2c(cc1Cl)OCO2 [Example 84, (6S)-7-[(6-Chloro-1,3-benzodioxol-5-yl)methyl]-6-methyl-3-pyrazin-2-yl-6,7-dihydro[1,2,4]triazolo[4,3-a]pyrazin-8(5H)-one]"
21,16.6,"Cc1c(CN2C(=O)c3nnc(-c4cnccn4)n3C[C@@H]2C)cccc1C(F)(F)F [Example 85, (6S)-6-Methyl-7-[2-methyl-3-(trifluoromethyl)benzyl]-3-pyrazin-2-yl-6,7-dihydro[1,2,4]triazolo[4,3-a]pyrazin-8(5H)-one]"
22,28.3,"C[C@H]1Cn2c(nnc2-c2cnccn2)C(=O)N1Cc1c(Cl)cccc1Cl [Example 86, (6S)-7-(2,6-Dichlorobenzyl)-6-methyl-3-pyrazin-2-yl-6,7-dihydro[1,2,4]triazolo[4,3-a]pyrazin-8(5H)-one]"
23,27,"Cc1cccc(C)c1CN1C(=O)c2nnc(-c3cnccn3)n2C[C@@H]1C [Example 87, (6S)-7-(2,6-Dimethylbenzyl)-6-methyl-3-pyrazin-2-yl-6,7-dihydro[1,2,4]triazolo[4,3-a]pyrazin-8(5H)-one]"
24,29.9,"C[C@H]1Cn2c(nnc2-c2cnccn2)C(=O)N1Cc1cccc(C(F)(F)F)c1 [Example 88, (6S)-6-Methyl-3-pyrazin-2-yl-7-[3-(trifluoromethyl)benzyl]-6,7-dihydro[1,2,4]triazolo[4,3-a]pyrazin-8(5H)-one]"
25,30.7,"C[C@H]1Cn2c(nnc2-c2cnccn2)C(=O)N1Cc1ccccc1[N+](=O)[O-] [Example 89, (6S)-6-Methyl-7-(2-nitrobenzyl)-3-pyrazin-2-yl-6,7-dihydro[1,2,4]triazolo[4,3-a]pyrazin-8(5H)-one]"
26,24.4,"C[C@H]1Cn2c(nnc2-c2cnccn2)C(=O)N1Cc1cc([N+](=O)[O-])ccc1Cl [Example 90, (6S)-7-(2-Chloro-5-nitrobenzyl)-6-methyl-3-pyrazin-2-yl-6,7-dihydro[1,2,4]triazolo[4,3-a]pyrazin-8(5H)-one]"
27,11.6,"C[C@H]1Cn2c(nnc2-c2cnccn2)C(=O)N1Cc1cc(N)ccc1Cl [Example 91, (6S)-7-(5-Amino-2-chlorobenzyl)-6-methyl-3-pyrazin-2-yl-6,7-dihydro[1,2,4]triazolo[4,3-a]pyrazin-8(5H)-one]"
28,-1,"CC(c1ccccc1)N1C(=O)c2nnc(-c3cnccn3)n2C[C@@H]1C (stereo partly drawn) [Example 92, (6S)-6-Methyl-7-(1-phenylethyl)-3-pyrazin-2-yl-6,7-dihydro[1,2,4]triazolo[4,3-a]pyrazin-8(5H)-one]"

row,SMILES,remaining activity at 10 µM [%]
1,"CC[C@H]1Cn2c(nnc2-c2cnccn2)C(=O)N1Cc1cccc(C(F)(F)F)c1Cl [Example 71, (6S)-7-[2-Chloro-3-(trifluoromethyl)benzyl]-6-ethyl-3-pyrazin-2-yl-6,7-dihydro[1,2,4]triazolo[4,3-a]pyrazin-8(5H)-one]",1.2

# Same assay, conditions: Table 2; 10 μM compound; IL-1β release, LPS + 0.5 mM Bz-ATP
row,SMILES,PBMC 10 μM (% control)
1,"CC[C@H]1Cn2c(nnc2-c2cnccn2)C(=O)N1Cc1cccc(C(F)(F)F)c1Cl [Example 71, (6S)-7-[2-Chloro-3-(trifluoromethyl)benzyl]-6-ethyl-3-pyrazin-2-yl-6,7-dihydro[1,2,4]triazolo[4,3-a]pyrazin-8(5H)-one]",1.2
